This is an account of results in patent US20240366770A1, “DEGRADATION OF BRUTON'S TYROSINE KINASE (BTK) BY CONJUGATION OF BTK INHIBITORS WITH E3 LIGASE LIGAND AND METHODS OF USE” (BeiGene Switzerland GmbH, priority 2021, published 2024).

Each structure is given as a SMILES string.

One assay addresses T1, BTK (Homo sapiens, UniProt Q06187).
T1 construct: High control=Cell group with added DMSO and without compound, indicating microplate readings without BTK degradation; endogenous in cells; host or cells: TMD-8
Put plainly: BTK degradation in TMD-8 cells (HTRF assay). Particulars: 6 h treatment, IC50 (DC50) of BTK degradation. It counts as cell-based. The procedure:
TMD-8 cells were treated with compounds diluted in 0.2% DMSO, dilution was done according to the following protocol: (1) making 500× stock solution in DMSO from 1 mM by 6-fold dilution, total 8 doses were included; (2) making 2× solution in cell culture medium by transferring 0.5 μl 500× stock solution into 125 μl medium; (3) adding 15 μl of 2× solution to cells for incubation of 6 h.
After 6 h treatment, 10 μl 4× lysis buffer was added to each well; the plate was sealed and incubated for 30 min at room temperature on a plate shaker; Once the cells was lysed, 16 μL of cell lysate were transferred to a PE 384-well HTRF detection plate; 4 μL of pre-mixed HTRF antibodies were added to each well; the plate was covered with a plate sealer, and then spinned at 1000 rpm for 1 min, then incubated overnight at room temperature; the results were read on BMG PheraStar with HTRF protocol (337 nm-665 nm-620 nm).
The IC50 (DC50) value of a compound can be obtained by fitting the following equation
(§1) wherein, X and Y are known values, and IC50, Hillslope, Top and Bottom are the parameters obtained by fitting with software. Y is the inhibition percentage (calculated from the equation), X is the concentration of the compound; IC50 is the concentration of the compound when the 50% inhibition is reached. The smaller the IC50 value is, the stronger the inhibitory ability of the compound is. Vice versa, the higher the IC50 value is, the weaker the ability the inhibitory ability of the compound is; Hillslope represents the slope of the fitted curve, generally around 1 *; Bottom represents the minimum value of the curve obtained by data fitting, which is generally 0%±20%; Top represents the maximum value of the curve obtained by data fitting, which is generally 100%±20%. The experimental data were fitted by calculating and analyzing with Dotmatics data analysis software.

A further assay deals with HEK-293 cells. The assay can be described thus: HEK-293 cytotoxicity detection (CellTiter-Glo). It counts as cell-based. Particulars: Homo sapiens; HEK-293 cells, 72 h incubation, CellTiter-Glo luminescence, IC50 of cell proliferation inhibition; read-out: HEK293. On the procedure:
HEK-293 cells were treated with compounds diluted in 0.2% DMSO, dilution was done according to the following protocol: (1) making 500× stock solution in DMSO from 5 mM by 4-fold dilution, total 8 doses were included; (2) making 2× solution in cell culture medium by transferring 0.5 ul 500× stock solution into 125 μl medium; (3) adding 50 μl of 2× solution to cells for incubation of 72 h.
25 μl of the CellTiter-Glo®Reagent [(Promega) -Cat No. G7572] was added to each well in the 96-well plate. The contents were mixed for 2 minutes on an orbital shaker to induce cell lysis. The plate was then allowed to incubate at room temperature for 10 minutes to stabilize luminescent signal. Luminescence was recorded on BMG PheraStar with luminescence protocol.
The IC50 value of a compound can be obtained by fitting the following equation
as §1, with “Wherein,” for “wherein,”

T1 sequence (Q06187 whole entry): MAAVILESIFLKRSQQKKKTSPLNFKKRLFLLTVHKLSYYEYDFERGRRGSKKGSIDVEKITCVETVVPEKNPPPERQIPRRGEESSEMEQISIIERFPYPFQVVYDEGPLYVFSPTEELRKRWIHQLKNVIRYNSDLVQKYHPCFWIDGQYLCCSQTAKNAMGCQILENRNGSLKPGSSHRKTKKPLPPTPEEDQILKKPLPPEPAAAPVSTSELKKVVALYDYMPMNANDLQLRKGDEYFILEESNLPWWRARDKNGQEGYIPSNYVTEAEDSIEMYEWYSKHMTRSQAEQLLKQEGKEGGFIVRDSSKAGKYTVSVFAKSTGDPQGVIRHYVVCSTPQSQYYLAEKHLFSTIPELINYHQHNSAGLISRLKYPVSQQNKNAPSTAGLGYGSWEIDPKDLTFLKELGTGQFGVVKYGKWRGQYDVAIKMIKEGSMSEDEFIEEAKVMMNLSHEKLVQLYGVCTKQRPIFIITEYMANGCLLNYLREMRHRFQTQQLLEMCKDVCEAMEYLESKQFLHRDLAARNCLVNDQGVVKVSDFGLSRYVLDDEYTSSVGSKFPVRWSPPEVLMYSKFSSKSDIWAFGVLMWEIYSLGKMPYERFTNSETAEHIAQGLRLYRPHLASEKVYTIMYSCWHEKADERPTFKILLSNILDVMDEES

For the compound `COc1cc2c(cc1N1CCN(Cc3ccc(SC4CCC(=O)NC4=O)cc3)CC1)[nH]c1ncnc(-c3ccc([C@@H](C)NC(=O)c4nc(C(C)(C)C)no4)c(C)c3)c12` (stereo partly drawn) [Example 75, 3-(tert-butyl)-N-((1R)-1-(4-(7-(4-(4-((2,6-dioxopiperidin-3-yl)thio)benzyl)piperazin-1-yl)-6-methoxy-9H-pyrimido[4,5-b]indol-4-yl)-2-methylphenyl)ethyl)-1,2,4-oxadiazole-5-carboxamide], at BTK, the DC50 was > 2000 nM. For the same compound, the IC50 in the assay on HEK-293 cells was > 10000 nM.

At BTK, `COc1cc2c(cc1N1CCN(C3CCN(c4cccc(C5CCC(=O)NC5=O)c4)C3)CC1)[nH]c1ncnc(-c3ccc([C@@H](C)NC(=O)c4noc(C(C)(C)C)n4)c(C)c3F)c12` (stereo partly drawn) [Example 61, 5-(tert-butyl)-N-((1R)-1-(4-(7-(4-(1-(3-(2,6-dioxopiperidin-3-yl)phenyl)pyrrolidin-3-yl)piperazin-1-yl)-6-methoxy-9H-pyrimido[4,5-b]indol-4-yl)-3-fluoro-2-methylphenyl)ethyl)-1,2,4-oxadiazole-3-carboxamide] registered a DC50 of 5.52 nM. In addition, the IC50 in the assay with HEK-293 cells was > 10000 nM.

On BTK, `COc1cc2c(cc1N1CCN(Cc3ccc4c(c3)n(C)c(=O)n4C3CCC(=O)NC3=O)CC1)[nH]c1ncnc(-c3ccc([C@@H](C)NC(=O)c4nc(C(C)(C)C)no4)c(C)c3)c12` (stereo partly drawn) [Example 69, 3-(tert-butyl)-N-((1R)-1-(4-(7-(4-((1-(2,6-dioxopiperidin-3-yl)-3-methyl-2-oxo-2,3-dihydro-1H-benzo[d]imidazol-5-yl)methyl)piperazin-1-yl)-6-methoxy-9H-pyrimido[4,5-b]indol-4-yl)-2-methylphenyl)ethyl)-1,2,4-oxadiazole-5-carboxamide] gave a DC50 of 0.266 nM. For the same compound, in the assay on HEK-293 cells, the IC50 is > 10000 nM.

As to `Cc1cc(-c2ncnc3[nH]c4cc(C5CCN(C6CC(c7ccc([C@@H]8CCC(=O)NC8=O)cc7)C6)C5)ccc4c23)ccc1[C@@H](C)NC(=O)c1nc(C(C)(C)C)no1` (stereo partly drawn) [Example 21, 3-(tert-butyl)-N-((1R)-1-(4-(7-(1-(3-(4-((S)-2,6-dioxopiperidin-3-yl)phenyl)cyclobutyl)pyrrolidin-3-yl)-9H-pyrimido[4,5-b]indol-4-yl)-2-methylphenyl)ethyl)-1,2,4-oxadiazole-5-carboxamide], at BTK, the DC50 stood at 0.609 nM. Moreover, the IC50 with HEK-293 cells stood at 3600 nM.

`Cc1cc(-c2ncnc3[nH]c4cc(N5CCN(CCc6ccc(C7CCC(=O)NC7=O)c(C)n6)CC5)ccc4c23)ccc1[C@@H](C)NC(=O)c1nc(C(C)(C)C)no1` (stereo partly drawn) [Example 16, 3-(tert-butyl)-N-((1R)-1-(4-(7-(4-(2-(5-(2,6-dioxopiperidin-3-yl)-6-methylpyridin-2-yl)ethyl)piperazin-1-yl)-9H-pyrimido[4,5-b]indol-4-yl)-2-methylphenyl)ethyl)-1,2,4-oxadiazole-5-carboxamide] gave a DC50 at BTK of 0.347 nM. Moreover, the IC50 in the assay with HEK-293 cells is > 10000 nM.

For `Cc1cc(-c2ncnc3[nH]c4c(c23)CCC(N2CCN(C3CC(c5ccc([C@H]6CCC(=O)NC6=O)cc5)C3)CC2)C4)ccc1[C@@H](C)NC(=O)c1nc(C(C)(C)C)no1` (stereo partly drawn) [Example 133, 3-(tert-butyl)-N-((1R)-1-(4-(7-(4-(3-(4-((R)-2,6-dioxopiperidin-3-yl)phenyl)cyclobutyl)piperazin-1-yl)-6,7,8,9-tetrahydro-5H-pyrimido[4,5-b]indol-4-yl)-2-methylphenyl)ethyl)-1,2,4-oxadiazole-5-carboxamide], at BTK, the DC50 is > 2000 nM. Besides, the IC50 in the assay with HEK-293 cells is > 10000 nM.

At BTK, `Cc1cc(-c2ncnc3[nH]c4cc(N5CCN(C6CC(c7ccc([C@@H]8CCC(=O)NC8=O)cc7)C6)CC5)ccc4c23)ccc1[C@@H](C)NC(=O)c1nc(C2(C)CC2)no1` (stereo partly drawn) [Example 67, N—((R)-1-(4-(7-(4-(3-(4-((S)-2,6-dioxopiperidin-3-yl)phenyl)cyclobutyl)piperazin-1-yl)-9H-pyrimido[4,5-b]indol-4-yl)-2-methylphenyl)ethyl)-3-(1-methylcyclopropyl)-1,2,4-oxadiazole-5-carboxamide] displayed a DC50 of 1.27 nM. The IC50 with HEK-293 cells was > 10000 nM.

Consider `Cc1c([C@@H](C)NC(=O)c2noc(C(C)(C)C)n2)ccc(-c2ncnc3[nH]c4cc(N5CCN(Cc6ccc7c(c6)N(C6CCC(=O)NC6=O)C(=O)C7(C)C)CC5)ccc4c23)c1F` (stereo partly drawn) [Example 85, 5-(tert-butyl)-N-((1R)-1-(4-(7-(4-((1-(2,6-dioxopiperidin-3-yl)-3,3-dimethyl-2-oxoindolin-6-yl)methyl)piperazin-1-yl)-9H-pyrimido[4,5-b]indol-4-yl)-3-fluoro-2-methylphenyl)ethyl)-1,2,4-oxadiazole-3-carboxamide], for which the DC50 on BTK is > 2000 nM. The IC50 with HEK-293 cells is > 10000 nM.

For `Cc1cc(-c2ncnc3[nH]c4cc(N5CCN([C@H]6C[C@H](c7ccc(NC8CCC(=O)NC8=O)cc7)C6)CC5)ccc4c23)ccc1[C@@H](C)NC(=O)c1nc(C2(C)CC2)no1` (stereo partly drawn) [Example 116, N-((1R)-1-(4-(7-(4-((1r,3r)-3-(4-((2,6-dioxopiperidin-3-yl)amino)phenyl)cyclobutyl)piperazin-1-yl)-9H-pyrimido[4,5-b]indol-4-yl)-2-methylphenyl)ethyl)-3-(1-methylcyclopropyl)-1,2,4-oxadiazole-5-carboxamide], the DC50 on BTK stood at 0.509 nM. Besides, the IC50 with HEK-293 cells was > 10000 nM.

Consider `Cc1cc(-c2ncnc3[nH]c4cc(N5CCN([C@H]6C[C@H](c7ccc(N[C@@H]8CCC(=O)NC8=O)cc7)C6)CC5)ccc4c23)ccc1[C@@H](C)NC(=O)c1nc(C2(C)CC2)no1` [Example 117, N—((R)-1-(4-(7-(4-((1R,3r)-3-(4-(((R)-2,6-dioxopiperidin-3-yl)amino)phenyl)cyclobutyl)piperazin-1-yl)-9H-pyrimido[4,5-b]indol-4-yl)-2-methylphenyl)ethyl)-3-(1-methylcyclopropyl)-1,2,4-oxadiazole-5-carboxamide], for which the DC50 at BTK is 0.981 nM. The IC50 in the assay with HEK-293 cells is > 10000 nM.

Regarding `Cc1cc(-c2ncnc3[nH]c4cc(N5CCC6(CC5)CCN([C@H]5C[C@H](c7ccc(N[C@@H]8CCC(=O)NC8=O)cc7)C5)CC6)ccc4c23)ccc1[C@@H](C)NC(=O)c1nc(C(C)(C)C)no1` [Example 109, 3-(tert-butyl)-N—((R)-1-(4-(7-(9-((1R,3r)-3-(4-(((R)-2,6-dioxopiperidin-3-yl)amino)phenyl)cyclobutyl)-3,9-diazaspiro[5.5]undecan-3-yl)-9H-pyrimido[4,5-b]indol-4-yl)-2-methylphenyl)ethyl)-1,2,4-oxadiazole-5-carboxamide], the half-maximal degradation concentration (DC50) on BTK was 6.07 nM. The IC50 with HEK-293 cells came out at 1010 nM.

Take `Cc1cc(-c2ncnc3[nH]c4cc(N5CCN(CC6CCN(c7ccc(N8CCC(=O)NC8=O)cc7)CC6)CC5)ccc4c23)c(F)cc1[C@@H](C)NC(=O)c1nc(C2(C)CC2)no1` [Example 89, (R)—N-(1-(4-(7-(4-((1-(4-(2,4-dioxotetrahydropyrimidin-1(2H)-yl)phenyl)piperidin-4-yl)methyl)piperazin-1-yl)-9H-pyrimido[4,5-b]indol-4-yl)-5-fluoro-2-methylphenyl)ethyl)-3-(1-methylcyclopropyl)-1,2,4-oxadiazole-5-carboxamide]: at BTK, the DC50 came out at 0.55 nM. In the assay on HEK-293 cells, the IC50 is > 10000 nM.
